Test results: the supplement of paper PMC10307832

Legend:
Test in all cases: relative viability (nuclei count vs DMSO), 5 days (fraction); higher = more cells survive
LCLC-103H = test system: LCLC-103H
Summary of the method: (§1)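 Lung cancer cell lines, seeded in 1536-well plates, were treated the following day by pin tool with a single drug or with five library-drug doses (not always all listed) in √10 steps on top of a fixed anchor-drug dose. Cells were fixed and nuclei stained in one step after 5 days, and nuclei were counted. Relative viability is the nuclei count for treated wells divided by that for vehicle wells, reported as medians of duplicate plates.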

EBC-1 = test system: EBC-1
Summary of the method: as §1

HCC-15 = test system: HCC-15
Summary of the method: as §1

IA-LM = test system: IA-LM
Summary of the method: as §1

NCI-H1299 = test system: NCI-H1299
Summary of the method: as §1

EKVX = test system: EKVX
Summary of the method: as §1

NCI-H1755 = test system: NCI-H1755
Summary of the method: as §1

A549 = test system: A549
Summary of the method: as §1

Calu-6 = test system: Calu-6
Summary of the method: as §1

NCI-H1703 = test system: NCI-H1703
Summary of the method: as §1

NCI-H1395 = test system: NCI-H1395
Summary of the method: as §1

NCI-H1623 = test system: NCI-H1623
Summary of the method: as §1

UMC-11 = test system: UMC-11
Summary of the method: as §1

SMILES: O=c1cc(N2CCOCC2)oc2c(-c3cccc4c3sc3ccccc34)cccc12 + COc1cc2c(Oc3ccc(NC(=O)C4(C(=O)Nc5ccc(F)cc5)CC4)cc3F)ccnc2cc1OCCCN1CCOCC1 [Foretinib] (partner 0.25 µM)
- relative viability (LCLC-103H; first compound 0.01 µM): 0.685
- relative viability (LCLC-103H; first compound 0.03162 µM): 0.786
- relative viability (LCLC-103H; first compound 0.1 µM): 0.806
- relative viability (LCLC-103H; first compound 0.3162 µM): 0.824
- relative viability (LCLC-103H; first compound 1 µM): 0.746
- relative viability (EBC-1; first compound 0.01 µM): 0.0963
- relative viability (EBC-1; first compound 0.03162 µM): 0.0939
- relative viability (EBC-1; first compound 0.1 µM): 0.0965
- relative viability (EBC-1; first compound 0.3162 µM): 0.128
- relative viability (EBC-1; first compound 1 µM): 0.102
- relative viability (HCC-15; first compound 0.01 µM): 1.01
- relative viability (HCC-15; first compound 0.03162 µM): 1.09
- relative viability (HCC-15; first compound 0.1 µM): 1.09
- relative viability (HCC-15; first compound 0.3162 µM): 0.989
- relative viability (HCC-15; first compound 1 µM): 0.971
- relative viability (IA-LM; first compound 0.01 µM): 1.1
- relative viability (IA-LM; first compound 0.03162 µM): 1.11
- relative viability (IA-LM; first compound 0.1 µM): 1.23
- relative viability (IA-LM; first compound 0.3162 µM): 1.06
- relative viability (IA-LM; first compound 1 µM): 1.25
- relative viability (NCI-H1299; first compound 0.01 µM): 1.04
- relative viability (NCI-H1299; first compound 0.03162 µM): 1.11
- relative viability (NCI-H1299; first compound 0.1 µM): 1.08
- relative viability (NCI-H1299; first compound 0.3162 µM): 1.13
- relative viability (NCI-H1299; first compound 1 µM): 1.04
- relative viability (EKVX; first compound 0.01 µM): 0.973
- relative viability (EKVX; first compound 0.03162 µM): 1.05
- relative viability (EKVX; first compound 0.1 µM): 0.818
- relative viability (EKVX; first compound 0.3162 µM): 0.628
- relative viability (EKVX; first compound 1 µM): 0.59
- relative viability (NCI-H1755; first compound 0.01 µM): 0.899
- relative viability (NCI-H1755; first compound 0.03162 µM): 0.952
- relative viability (NCI-H1755; first compound 0.1 µM): 0.959
- relative viability (NCI-H1755; first compound 0.3162 µM): 0.926
- relative viability (NCI-H1755; first compound 1 µM): 0.934
- relative viability (A549; first compound 0.01 µM): 0.936
- relative viability (A549; first compound 0.03162 µM): 1
- relative viability (A549; first compound 0.1 µM): 0.99
- relative viability (A549; first compound 0.3162 µM): 0.912
- relative viability (A549; first compound 1 µM): 0.994
- relative viability (Calu-6; first compound 0.01 µM): 0.932
- relative viability (Calu-6; first compound 0.03162 µM): 0.895
- relative viability (Calu-6; first compound 0.1 µM): 0.891
- relative viability (Calu-6; first compound 0.3162 µM): 0.888
- relative viability (Calu-6; first compound 1 µM): 0.839
- relative viability (NCI-H1703; first compound 0.01 µM): 0.333
- relative viability (NCI-H1703; first compound 0.03162 µM): 0.314
- relative viability (NCI-H1703; first compound 0.1 µM): 0.352
- relative viability (NCI-H1703; first compound 0.3162 µM): 0.371
- relative viability (NCI-H1703; first compound 1 µM): 0.296
- relative viability (NCI-H1395; first compound 0.01 µM): 0.995
- relative viability (NCI-H1395; first compound 0.03162 µM): 0.915
- relative viability (NCI-H1395; first compound 0.1 µM): 0.973
- relative viability (NCI-H1395; first compound 0.3162 µM): 1.17
- relative viability (NCI-H1395; first compound 1 µM): 0.986
- relative viability (NCI-H1623; first compound 0.01 µM): 0.84
- relative viability (NCI-H1623; first compound 0.03162 µM): 0.9
- relative viability (NCI-H1623; first compound 0.1 µM): 0.559
- relative viability (NCI-H1623; first compound 0.3162 µM): 0.849
- relative viability (NCI-H1623; first compound 1 µM): 0.862
- relative viability (UMC-11; first compound 0.01 µM): 1
- relative viability (UMC-11; first compound 0.03162 µM): 1.08
- relative viability (UMC-11; first compound 0.1 µM): 1.03
- relative viability (UMC-11; first compound 0.3162 µM): 1.01
- relative viability (UMC-11; first compound 1 µM): 0.91

SMILES: CCN(CC)CCCCNc1ncc2cc(-c3cc(OC)cc(OC)c3)c(NC(=O)NC(C)(C)C)nc2n1 + COc1cc2c(Oc3ccc(NC(=O)C4(C(=O)Nc5ccc(F)cc5)CC4)cc3F)ccnc2cc1OCCCN1CCOCC1 [Foretinib] (partner 0.25 µM)
- relative viability (LCLC-103H; first compound 0.01 µM): 0.942
- relative viability (LCLC-103H; first compound 0.03162 µM): 0.866
- relative viability (LCLC-103H; first compound 0.1 µM): 0.858
- relative viability (LCLC-103H; first compound 0.3162 µM): 0.755
- relative viability (LCLC-103H; first compound 1 µM): 0.597
- relative viability (EBC-1; first compound 0.01 µM): 0.103
- relative viability (EBC-1; first compound 0.03162 µM): 0.111
- relative viability (EBC-1; first compound 0.1 µM): 0.12
- relative viability (EBC-1; first compound 0.3162 µM): 0.104
- relative viability (EBC-1; first compound 1 µM): 0.106
- relative viability (HCC-15; first compound 0.01 µM): 1.04
- relative viability (HCC-15; first compound 0.03162 µM): 1.19
- relative viability (HCC-15; first compound 0.1 µM): 1.03
- relative viability (HCC-15; first compound 0.3162 µM): 1.1
- relative viability (HCC-15; first compound 1 µM): 0.989
- relative viability (IA-LM; first compound 0.01 µM): 1.19
- relative viability (IA-LM; first compound 0.03162 µM): 1.33
- relative viability (IA-LM; first compound 0.1 µM): 1.17
- relative viability (IA-LM; first compound 0.3162 µM): 1.16
- relative viability (IA-LM; first compound 1 µM): 1.23
- relative viability (NCI-H1299; first compound 0.01 µM): 1.12
- relative viability (NCI-H1299; first compound 0.03162 µM): 1.1
- relative viability (NCI-H1299; first compound 0.1 µM): 1.16
- relative viability (NCI-H1299; first compound 0.3162 µM): 1.08
- relative viability (NCI-H1299; first compound 1 µM): 1.02
- relative viability (EKVX; first compound 0.01 µM): 0.589
- relative viability (EKVX; first compound 0.03162 µM): 0.471
- relative viability (EKVX; first compound 0.1 µM): 0.781
- relative viability (EKVX; first compound 0.3162 µM): 0.949
- relative viability (EKVX; first compound 1 µM): 0.758
- relative viability (NCI-H1755; first compound 0.01 µM): 0.986
- relative viability (NCI-H1755; first compound 0.03162 µM): 0.92
- relative viability (NCI-H1755; first compound 0.1 µM): 0.969
- relative viability (NCI-H1755; first compound 0.3162 µM): 0.936
- relative viability (NCI-H1755; first compound 1 µM): 0.882
- relative viability (A549; first compound 0.01 µM): 1.07
- relative viability (A549; first compound 0.03162 µM): 0.841
- relative viability (A549; first compound 0.1 µM): 1.1
- relative viability (A549; first compound 0.3162 µM): 1.17
- relative viability (A549; first compound 1 µM): 0.758
- relative viability (Calu-6; first compound 0.01 µM): 0.97
- relative viability (Calu-6; first compound 0.03162 µM): 0.994
- relative viability (Calu-6; first compound 0.1 µM): 1.02
- relative viability (Calu-6; first compound 0.3162 µM): 0.902
- relative viability (Calu-6; first compound 1 µM): 0.86
- relative viability (NCI-H1703; first compound 0.01 µM): 0.314
- relative viability (NCI-H1703; first compound 0.1 µM): 0.388
- relative viability (NCI-H1703; first compound 0.3162 µM): 0.308
- relative viability (NCI-H1703; first compound 1 µM): 0.373
- relative viability (NCI-H1395; first compound 0.01 µM): 0.999
- relative viability (NCI-H1395; first compound 0.03162 µM): 1.02
- relative viability (NCI-H1395; first compound 0.1 µM): 0.912
- relative viability (NCI-H1395; first compound 0.3162 µM): 0.887
- relative viability (NCI-H1395; first compound 1 µM): 0.818
- relative viability (NCI-H1623; first compound 0.01 µM): 0.859
- relative viability (NCI-H1623; first compound 0.03162 µM): 0.674
- relative viability (NCI-H1623; first compound 0.1 µM): 0.876
- relative viability (NCI-H1623; first compound 0.3162 µM): 0.945
- relative viability (NCI-H1623; first compound 1 µM): 0.874
- relative viability (UMC-11; first compound 0.01 µM): 0.952
- relative viability (UMC-11; first compound 0.03162 µM): 1.02
- relative viability (UMC-11; first compound 0.1 µM): 1.14
- relative viability (UMC-11; first compound 0.3162 µM): 1.19
- relative viability (UMC-11; first compound 1 µM): 1.02
